Two compounds from patent US20030108986A1, “Compositions and methods comprising G-protein coupled receptors” (Euroscreen, S.A., priority 2001, published 2003) can be followed below.

One test concerns the target T1, GPCRx11 (Homo sapiens, UniProt Q96LB1).
T1 construct: expressed in transfected cells; host or cells: CHO-K1
T1 sequence (Q96LB1 1-330): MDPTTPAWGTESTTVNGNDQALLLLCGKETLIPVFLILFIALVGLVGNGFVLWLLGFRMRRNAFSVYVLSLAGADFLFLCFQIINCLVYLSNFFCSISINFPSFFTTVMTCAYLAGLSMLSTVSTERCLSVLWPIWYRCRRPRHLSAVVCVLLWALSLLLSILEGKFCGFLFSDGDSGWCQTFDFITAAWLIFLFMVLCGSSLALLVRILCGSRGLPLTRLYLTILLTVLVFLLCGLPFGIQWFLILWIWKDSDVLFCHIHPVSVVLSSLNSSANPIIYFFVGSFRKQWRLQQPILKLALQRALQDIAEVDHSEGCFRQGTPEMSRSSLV
Nature of the test: aequorin-based assay of GPCRx11 activation by angiopeptin. In kind it is cell-based. The procedure:
As used herein, the term “aequorin-based assay” refers to an assay for GPCR activity that measures elevations in intracellular calcium induced by activated GPCRs, wherein intracellular calcium flux is measured by the luminescence of mitochondiral aequorin expressed in the cell.
The aequorin assay takes advantage of the responsiveness of mitochondrial apoaequorin to intracellular calcium release induced by the activation of GPCRs (Stables et al., 1997, Anal. Biochem. 252:115-126; Detheux et al., 2000, J. Exp. Med., 192 1501-1508; both of which are incorporated herein by reference). Briefly, GPCR-expressing clones are transfected to coexpress mitochondrial apoaequorin and Gα16. Cells are incubated with 5 μM Coelenterazine H (Molecular Probes) for 4 hours at room temperature, washed in DMEM-F12 culture medium and resuspended at a concentration of 0.5×10^6 cells/ml. Cells are then mixed with test agonist, or ligand molecules and light emission by the aequorin is recorded with a luminometer for 30 sec. Results are expressed as Relative Light Units (RLU). Controls include assays using membranes isolated from cells not expressing GPCRs (mock transfected), in order to exclude possible non-specific effects of the candidate compound. […]

In another test the target is GPCRx11 (human) (UniProt Q96LB1).

With `CC(C)[C@@H]1NC(=O)[C@H](CCCCN)NC(=O)[C@@H](Cc2c[nH]c3ccccc23)NC(=O)[C@H](Cc2ccc(O)cc2)NC(=O)[C@@H](NC(=O)[C@H](N)Cc2ccc3ccccc3c2)CSSC[C@@H](C(=O)N[C@H](C(N)=O)[C@@H](C)O)NC1=O` [angiopeptin], the “ligand of the receptor GPCRx11” value on GPCRx11 (GPCRx11 (SEQ ID NO: 12)) is “natural ligand”. Further, the concentration giving a half-maximal response (EC50) – broadly, the midpoint of the concentration-response curve – at GPCRx11 (GPCRx11 polypeptide bound by angiopeptin, transfected CHO-K1 cells (FIG. 16), read-out: EC50 of stimulation of mitochondrial aequorin fluorescence) is no more than 160 nM.
In the test with GPCRx11 (human), angiopeptin (peptide) yielded an EC50 (read off the curve); aequorin luminescence (RLU) in transfected CHO-K1 cells of 100 nM and an EC50; aequorin luminescence (RLU) in transfected CHO-K1 cells of 159 nM.
